# Columns and labels:
# [1] = system: KRAS.G12C lines in GENEVA pools; test: GENEVA pool transcriptome changes in cells surviving drug treatment; assay type: cell-based, human
# Method: Long-time course GENEVA pools were created to understand how ARS1620 achieved durable tumor regression in human cells. A seven day drug treatment regimen was conducted and transcriptome changes in surviving cells were analyzed.
# For each cell line, single cell datasets were divided into two sub-datasets: vehicle treated and drug treated. Differential expression was calculated between two single-cell datasets using a two-sample t-test. A differential expression score was obtained for each gene from two-sample t-test output. All cell lines were repeated until done and all differential expression scores for genes were saved into aggregated differential expression tables by cell line. Cells were grouped according to their phenotypic sensitivity to the tested compound. For tested compounds, the genetic driver of the compound sensitivity was discovered as described previously herein. Using the genetic driver, cell lines were classified by presence or absence of the driver into two categories, sensitive vs non-sensitive. The differential expression matrix was grouped into sensitive and insensitive cell lines. z-scores for genes within each cell line were calculated, genes were grouped by gene sets from biological geneset databases curated from scientific literature, and two sample T-tests with grouped z-scores were performed. First, all differential expression scores were normalized to the same scale by z-score within each cell line. […] Summary statistics from each gene test were saved and the z-score difference was calculated. The biological mechanism of action of the molecule of interest was determined by rank ordering the median z score results from each geneset to determine the relative upregulation or downregulation of genesets in response to the compound.
# Among this group of genes were FTH1 and FTL, the two components of the Ferritin Complex, which is responsible for sequestration of labile free iron. Using a lipid peroxidation live cell probe, lipid peroxidation—one of the hallmark phenotypes of ferroptosis—was measured in response to ARS-1620 treatment.
# [2] = system: patients derived xenografts (PDX) grown as pooled organoids; test: Cell cycle inhibition rates from GENEVA in pooled PDX; assay type: cell-based, human; conditions: PDX with known KRAS.G12C mutations; in vivo and ex vivo systems
# Text: Using growth-rate balanced heterogeneous cell pools adjusted for long time-course drug treatment, pools were created from four human patient-derived xenograft (PDX) models and implanted as a pooled tumor in a flank xenograft mouse model. The pooled tumors were drugged in mice by oral dosing by gavage for fourteen days with the molecule ARS-1620. After the treatment interval, tumors were harvested from mice, and single-cell RNA sequencing, genetic demultiplexing (as illustrated in Example 2), and sample hashing using barcoded antibodies was performed. Sufficient numbers of cells were observed from each PDX genetic background and drug treatment condition (FIG. 2C,D) for inference of drug phenotype and drug changes to the transcriptome. Pools from four PDX models were created for implantation for a fourteen day drug treatment in a 3D Organoid model system. […]
# Cell Cycle was calculated by regressing whole transcriptome readouts and weighting according to specified genes of interest related to different cell cycle states. Cells were assigned into G1, S, and G2/M. The cell cycle ratio was then calculated as fraction of cells per population: […]
# yielded a function where the slope was determined as the cell cycle inhibition rate, reflecting an alternative way to measure phenotype derived solely from transcriptome drug perturbation data over a long time course.
compound,measurement,setting,value
C=CC(=O)N1CCN(c2ncnc3c(F)c(-c4c(O)cccc4F)c(Cl)cc23)CC1 [ARS1620],percentage of mitochondrial reads in surviving cell subpopulations,"[1]; after drug treatment, within each cell line of the pool",significantly lower percentage of mitochondrial reads relative to overall reads
same,expression of anti-ferroptotic genes in surviving cells,"[1]; long-term treatment, across KRAS.G12C lines",Consistently upregulated genes across cell lines were found to be involved in an anti-ferroptotic response mechanism
same,expression of mitochondrially encoded genes in surviving cells,[1]; seven day drug treatment regimen,Mitochondrially encoded genes were downregulated
same,drug sensitivity by estimation of cell cycle inhibition rates,[2],shown to be sensitive to the compound (patients 877 and 233)
